In ChEMBL document CHEMBL1201862, “PubChem BioAssay data set” (2004):
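The compound was tested at five concentrations on cells cultured in 96-well plates, with a 48-hour exposure period. Here, GI50 denotes the concentration required for 50% inhibition of growth.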 Active and inactive are the calls of the source. Cut-off read from the data, not from the text of the source: active = GI50 up to about 1.1 µM and inactive = higher.

What was measured:
Test in all cases: inhibition of tumour cell growth, NCI panel, 48 h
MDA-MB-231 = test system: MDA-MB-231
M19-MEL = test system: M19-MEL
LXFL 529 = test system: LXFL 529
MDA-N = test system: MDA-N
Hs-578T = test system: Hs-578T
DLD-1 = test system: DLD-1
XF498 = test system: XF498
RXF 631 = test system: RXF 631
BT-549 = test system: BT-549

Measured: GI50

CC(=O)OCC1OC(n2cc(F)c(=O)[nH]c2=O)C(OC(C)=O)C1OC(C)=O (stereo not drawn)
inactive: MDA-MB-231 34.6 µM | M19-MEL 4.07 µM | LXFL 529 4.31 µM | MDA-N 11.5 µM | Hs-578T > 59.3 µM | DLD-1 15.4 µM | XF498 4.57 µM | RXF 631 15.5 µM | BT-549 68.5 µM

Cn1c2c(c3ccccc31)CCN(CCCCN1CCN(c3ccccc3)CC1)C2=O
inactive: MDA-MB-231 > 10 µM | M19-MEL 43.6 µM | LXFL 529 33.9 µM | MDA-N 21.6 µM | Hs-578T 12.4 µM | DLD-1 19.3 µM | XF498 14.1 µM | RXF 631 9.66 µM | BT-549 6.58 µM

CCOC(=O)C(C(=O)OCC)P(=S)(S)c1ccccc1 (stereo not drawn)
inactive: M19-MEL > 100 µM | LXFL 529 > 100 µM | DLD-1 > 100 µM | XF498 > 100 µM | RXF 631 > 100 µM
